# In patent US10434083B2, “Transmammary delivery of cyclooxygenase-2 inhibitors for analgesia in neonates” (Iowa State University Research Foundation, Inc., priority 2018, dated 2019):
# “And” between values parts separate entries of the source, which are not always exact repeats. Equal values may be shown once. Read-outs that look alike come from different tables or passages of the source.
# Columns and labels:
# [1] = Firocoxib pharmacokinetics in sows following IM administration (Example 2); format: in vivo, swine; settings: for AUC(0-t) / AUC(0-inf) / CL/F / Cmax / MRT inf / Tmax / MRT last / Vd/F / half-life: female, Yorkshire×Landrace, plasma; for AUC(0-t) / AUC(0-inf): im; for MRT last: read-out: MRT0-last; for Vd/F: read-out: VZ/F; for half-life: read-out: plasma elimination half-life (T1/2λz), range over dose groups
# Description: Protocols involved intramuscular injection of Firocoxib to lactating sows at either 0.5, 1.0, 1.5 or 2 mg/kg, and analysis in sows and select piglets at 21 days post treatment. Pregnant Yorkshire×Landrace sows (mean±SEM bodyweight, 250.3±7.61 kg) that were approximately 1 week before farrowing were sourced from a commercial swine farm. Each sow was examined by a veterinarian to confirm that she was healthy and pregnant. A unique numerical ear tag (Allflex Global Ear Tags, Allflex USA, Inc., DFW Airport, TX) was placed in the right ear of each sow for identification. The sows were housed in a commercial swine operation at MVS (West Point, Nebr.) in accordance with the recommendations in the Guide for the Care and Use of Agricultural Animals in Agricultural Use and Research and Teaching (Guide for the Care and Use of Agricultural Animals in Agricultural Research and Teaching, 2010). Sows were placed in Quad- or Euro-style farrowing stalls (Thorp Equipment, Thorp, Wis.), depending on availability. Regardless of stall type, each sow was housed in a farrowing crate measuring 0.6 m×2.1 m. Quad and Euro crates had piglet creep areas of 7.0 m^2 and 6.4 m^2, respectively. After farrowing, a heat lamp was provided on one side of the creep area for the piglets in each crate. All sows were fed a diet that met or exceeded National Research Council (NRC, 2012) nutrient requirements and water was provided ad libitum. Each litter provided at least six male and three female piglets for sampling with the exception of one sow that had 5 males and 4 females in the litter, and one sow that had 3 males and 6 females in the litter. Piglets were clinically examined and weighed on Study Day 0 prior to dosing. Cross fostering of the litters was permitted. Bodyweights were used to randomly assign sows to 1 of 4 treatment groups (n=4 sows/group) as detailed in Table 3.
# A sample size of 4 sows was selected to describe the pharmacokinetics of firocoxib. For the comparison of plasma cortisol concentrations and average daily gain in bodyweight (ADG), a sample size of 36 piglets/treatment group was calculated to provide Statistical Power of 0.8 assuming an alpha of 0.05, sigma of 0.54 and delta of 0.20. At the time of study commencement (T0), sows received a single dose of firocoxib (Equioxx Injection, Merial, Duluth, Ga.) (Lot number 4VP07, Expiration Date November 2017) administered at either 0.5 mg/kg, 1.0 mg/kg, 1.5 mg/kg, or 2.0 mg/kg by IM injection into the right lateral neck using an 18-gauge, 1.5-inch needle attached to a 20-mL syringe (Table 3). In cases where the calculated dose volume exceeded 20-mL, the remaining volume was administered via IM injection in the left lateral neck muscle.
# Blood samples for firocoxib determination were collected from the sows and three piglets/litter (two male and one female piglet at each time point) at 0, 2, 4, 6, 8, 12, 24, 48, 72, 96, and 120 h post-drug injection to the sow. The blood sample from each sow (8 mL/sample) was collected via the left or right jugular vein using a 25.4-mm, 16-gauge hypodermic needle (Air-Tite Products, Virginia Beach, Va.) attached to a 12-mL Luer-Lok syringe (TycoHealth Care, Mansfield, Mass.). During blood collection, a pig snare was used for manual restraint of each sow in her crate. The blood samples (2 mL/sample) from the piglets were collected from the left or right cranial vena cava using a 3.8-cm, 20-gauge hypodermic needle (TycoHealth Care, Mansfield, Mass.) attached to a 3-mL syringe (TycoHealth Care, Mansfield, Mass.). Physical restraint of the piglet was achieved by placing the animal in a supine position during sample collection. Blood samples were transferred to 6-mL evacuated tubes that contained lithium heparin (Vacuette plasma tubes, Greiner Bio-One, Monroe, N.C.) that were stored on ice for up to 2 h before processing. The blood samples were centrifuged for 10 min at 1,500×g. The plasma was then removed, placed in cryovials, and frozen at −80° C. until analysis. […]
# [2] = Total firocoxib exposure in piglets as a percentage of sow AUC; format: in vivo, swine
# Description: The relative transfer of firocoxib from medicated sows to piglets was evaluated by comparing the piglet plasma drug concentration as a percentage of the sow plasma drug concentration at each time point. Total piglet exposure to firocoxib via milk consumed from treated dams was evaluated by comparing the firocoxib AUC for the piglets with the drug AUC calculated for the corresponding dams from each treatment. Exposure percentages were determined using the equation:
# [formula] Statistical Analysis
smiles,measurement,setting,value
CC1(C)OC(=O)C(OCC2CC2)=C1c1ccc(S(C)(=O)=O)cc1 [firocoxib],AUC(0-t),"[1]; pig, 0.5 mg/kg, sow dose 0.5 mg/kg (Table 7), read-out: Sow AUClast",1530 ng·h/mL
same,AUC(0-inf),"[1]; pig, 0.5 mg/kg, sow dose 0.5 mg/kg (Table 7), read-out: Sow AUC∞",1590 ng·h/mL
same,AUC(0-t),"[1]; pig, 0.5 mg/kg, sows, 0.5 mg/kg IM, mean, read-out: AUC0-24h",1030 ng·h/mL
same,AUC(0-t),"[1]; pig, 0.5 mg/kg, sows, 0.5 mg/kg IM, mean, read-out: AUC0-last",1530 ng·h/mL
same,AUC(0-inf),"[1]; pig, 0.5 mg/kg, sows, 0.5 mg/kg IM, mean, read-out: AUCINF",1590 ng·h/mL
same,AUC(0-t),"[1]; pig, 1 mg/kg, sow dose 1.0 mg/kg (Table 7), read-out: Sow AUClast",5330 ng·h/mL
same,AUC(0-inf),"[1]; pig, 1 mg/kg, sow dose 1.0 mg/kg (Table 7), read-out: Sow AUC∞",5620 ng·h/mL
same,AUC(0-t),"[1]; pig, 1 mg/kg, sows, 1.0 mg/kg IM, mean, read-out: AUC0-24h",2670 ng·h/mL
same,AUC(0-t),"[1]; pig, 1 mg/kg, sows, 1.0 mg/kg IM, mean, read-out: AUC0-last",5330 ng·h/mL
same,AUC(0-inf),"[1]; pig, 1 mg/kg, sows, 1.0 mg/kg IM, mean, read-out: AUCINF",5620 ng·h/mL
same,AUC(0-t),"[1]; pig, 1.5 mg/kg, sow dose 1.5 mg/kg (Table 7), read-out: Sow AUClast",8320 ng·h/mL
same,AUC(0-inf),"[1]; pig, 1.5 mg/kg, sow dose 1.5 mg/kg (Table 7), read-out: Sow AUC∞",8660 ng·h/mL
same,AUC(0-t),"[1]; pig, 1.5 mg/kg, sows, 1.5 mg/kg IM, mean, read-out: AUC0-24h",4840 ng·h/mL
same,AUC(0-t),"[1]; pig, 1.5 mg/kg, sows, 1.5 mg/kg IM, mean, read-out: AUC0-last",8320 ng·h/mL
same,AUC(0-inf),"[1]; pig, 1.5 mg/kg, sows, 1.5 mg/kg IM, mean, read-out: AUCINF",8660 ng·h/mL
same,AUC(0-t),"[1]; pig, 2 mg/kg, sow dose 2.0 mg/kg (Table 7), read-out: Sow AUClast",12700 ng·h/mL
same,AUC(0-inf),"[1]; pig, 2 mg/kg, sow dose 2.0 mg/kg (Table 7), read-out: Sow AUC∞",13700 ng·h/mL
same,AUC(0-t),"[1]; pig, 2 mg/kg, sows, 2.0 mg/kg IM, mean, read-out: AUC0-24h",6640 ng·h/mL
same,AUC(0-t),"[1]; pig, 2 mg/kg, sows, 2.0 mg/kg IM, mean, read-out: AUC0-last",12700 ng·h/mL
same,AUC(0-inf),"[1]; pig, 2 mg/kg, sows, 2.0 mg/kg IM, mean, read-out: AUCINF",13700 ng·h/mL
same,CL/F,"[1]; pig, sows, 0.5 mg/kg IM, mean",5.5 mL/min/kg
same,Cmax,"[1]; pig, sows, 0.5 mg/kg IM, mean",108 ± 15.2 ng/mL
same,MRT inf,"[1]; pig, sows, 0.5 mg/kg IM, mean",29.4 h
same,Tmax,"[1]; pig, sows, 0.5 mg/kg IM, mean",3.5 h
same,MRT last,"[1]; pig, sows, 0.5 mg/kg IM, mean",27.2 h
same,Vd/F,"[1]; pig, sows, 0.5 mg/kg IM, mean",13.8 L/kg
same,CL/F,"[1]; pig, sows, 1.0 mg/kg IM, mean",3.5 mL/min/kg
same,Cmax,"[1]; pig, sows, 1.0 mg/kg IM, mean",158 ± 24.9 ng/mL
same,MRT inf,"[1]; pig, sows, 1.0 mg/kg IM, mean",34.8 h
same,Tmax,"[1]; pig, sows, 1.0 mg/kg IM, mean",5.5 h
same,MRT last,"[1]; pig, sows, 1.0 mg/kg IM, mean",29.4 h
same,Vd/F,"[1]; pig, sows, 1.0 mg/kg IM, mean",7.82 L/kg
same,CL/F,"[1]; pig, sows, 1.5 mg/kg IM, mean",3.17 mL/min/kg
same,Cmax,"[1]; pig, sows, 1.5 mg/kg IM, mean",344 ± 78.9 ng/mL
same,MRT inf,"[1]; pig, sows, 1.5 mg/kg IM, mean",33.5 h
same,Tmax,"[1]; pig, sows, 1.5 mg/kg IM, mean",3 h
same,MRT last,"[1]; pig, sows, 1.5 mg/kg IM, mean",26.4 h
same,Vd/F,"[1]; pig, sows, 1.5 mg/kg IM, mean",9.12 L/kg
same,CL/F,"[1]; pig, sows, 2.0 mg/kg IM, mean",3 mL/min/kg
same,Cmax,"[1]; pig, sows, 2.0 mg/kg IM, mean",453 ± 90.3 ng/mL
same,MRT inf,"[1]; pig, sows, 2.0 mg/kg IM, mean",36.8 h
same,Tmax,"[1]; pig, sows, 2.0 mg/kg IM, mean",4.5 h
same,MRT last,"[1]; pig, sows, 2.0 mg/kg IM, mean",29.1 h
same,Vd/F,"[1]; pig, sows, 2.0 mg/kg IM, mean",7.75 L/kg
same,half-life,"[1]; pig, sows, 0.5-2.0 mg/kg IM",26.7 to 31.1 h
same,half-life,"[1]; swine, sows, 0.5-2.0 mg/kg IM",26.7 to 31.1 h
same,AUC_Exp,"[1]; sows, 0.5 mg/kg IM, mean",3.39%
same,AUMC,"[1]; sows, 0.5 mg/kg IM, mean",31765 h^2 × ng/mL
same,T1/2λZ,"[1]; sows, 0.5 mg/kg IM, mean",28.87 h
same,λZ,"[1]; sows, 0.5 mg/kg IM, mean",0.03 h⁻¹
same,AUC_Exp,"[1]; sows, 1.0 mg/kg IM, mean",4.15%
same,AUMC,"[1]; sows, 1.0 mg/kg IM, mean",164892 h^2 × ng/mL
same,T1/2λZ,"[1]; sows, 1.0 mg/kg IM, mean",26.70 h
same,λZ,"[1]; sows, 1.0 mg/kg IM, mean",0.03 h⁻¹
same,AUC_Exp,"[1]; sows, 1.5 mg/kg IM, mean",4.98%
same,AUMC,"[1]; sows, 1.5 mg/kg IM, mean",215365 h^2 × ng/mL
same,T1/2λZ,"[1]; sows, 1.5 mg/kg IM, mean",29.89 h
same,λZ,"[1]; sows, 1.5 mg/kg IM, mean",0.02 h⁻¹
same,AUC_Exp,"[1]; sows, 2.0 mg/kg IM, mean",5.61%
same,AUMC,"[1]; sows, 2.0 mg/kg IM, mean",392753 h^2 × ng/mL
same,T1/2λZ,"[1]; sows, 2.0 mg/kg IM, mean",31.09 h
same,λZ,"[1]; sows, 2.0 mg/kg IM, mean",0.02 h⁻¹
same,"volume of distribution, range over dose groups","[1]; sows, 0.5-2.0 mg/kg IM",7.75 to 13.8 L/kg
same,"volume of distribution in sows, fold larger than flunixin",[1]; vs flunixin (0.30 L/kg) in pigs,approximately 26 fold
same,"elimination half-life in sows, fold longer than flunixin",[1]; vs flunixin (7.5 h) in pigs,~4 fold
same,"volume of distribution in sows, fold greater than ketoprofen",[1]; vs ketoprofen (0.35 L/kg) in pigs,~22 fold
same,"elimination half-life in sows, fold longer than ketoprofen",[1]; vs ketoprofen (3 h) in pigs,approximately 10 fold
same,"volume of distribution in sows, fold greater than meloxicam",[1]; vs meloxicam (0.42 L/kg) in pigs,~18 fold
same,"elimination half-life in sows, fold longer than meloxicam",[1]; vs meloxicam (6 h) in pigs,~5 fold
same,"% Exposure (AUClast, piglet vs sow)",[2]; sow dose 0.5 mg/kg,41.42%
same,"% Exposure (AUC∞, piglet vs sow)",[2]; sow dose 0.5 mg/kg,43.51%
same,"% Exposure (AUClast, piglet vs sow)",[2]; sow dose 1.0 mg/kg,46.29%
same,"% Exposure (AUC∞, piglet vs sow)",[2]; sow dose 1.0 mg/kg,56.50%
same,"% Exposure (AUClast, piglet vs sow)",[2]; sow dose 1.5 mg/kg,46.83%
same,"% Exposure (AUC∞, piglet vs sow)",[2]; sow dose 1.5 mg/kg,53.31%
same,"% Exposure (AUC∞, piglet vs sow)",[2]; sow dose 2.0 mg/kg,26.75%
same,"% Exposure (AUClast, piglet vs sow)","[2]; sow dose 2.0 mg/kg, 2 mg/kg",25.32% and 25%
